Data as given in US20220016113A1, “?2-ADRENOCEPTOR SUBTYPE C (ALPHA-2C) ANTAGONISTS FOR THE TREATMENT OF SLEEP APNEA” (Bayer Aktiengesellschaft, priority 2018, published 2022).

Test system: pig model of obstructive sleep apnea (OSA)
Experiment: pig model of obstructive sleep apnea (OSA): upper airway collapsibility under negative pressure
Assay type: in vivo, German Landrace pigs
Settings: anaesthetized pigs
Source text: The therapeutic potential of the compounds of formula (I) according to the present invention in sleep apnea has been assessed preclinically in a pig model of obstructive sleep apnea (OSA).
Using negative pressure, it is possible to induce collapse and thus obstruction of the upper respiratory tract in anaesthetized, spontaneously breathing pigs (Wirth K. J. et al., Sleep 36(5) (2013) pp. 699-708).
German Landrace pigs are used for the model. The pigs are anaesthetized and tracheotomized. Two tracheal cannulas are inserted into the trachea, one into the rostral part and the other into the caudal part of the trachea. Using a connection piece, the rostral cannula is connected to a tube to the negative pressure device and to the distal tracheal cannula. The distal tracheal cannula is additionally connected to a tube with an open end to atmosphere via a connection piece that served for free tracheal breathing, circumventing the upper airway. By appropriate opening and clamping of those tubes breathing can be switched from nasal breathing to breathing through the caudal tracheal cannula, circumventing the upper airway, and the (isolated) upper airway can be connected to the negative pressure device, causing airflow in the inspiratory direction.
At certain points in time, the collapsibility of the upper respiratory tract is tested by having the pig breathe via the caudal cannula and applying negative pressures of −50, −100 and −150 cm water head (cm H2O) to the upper respiratory tract. This causes the upper respiratory tract to collapse, which manifests itself in an interruption of the airflow and a pressure drop in the tube system. This test is conducted prior to the administration of the test substance and at certain intervals after the administration of the test substance. An appropriately effective test substance can prevent this collapse of the respiratory tract in the inspiratory phase.

Q: Which results are given for O=C(c1cnc(N2CC3(COC3)C2)nc1)N1CCC(N2CCc3ccccc3C2)CC1 [[4-(3,4-Dihydroisoquinolin-2(1H)-yl)piperidin-1-yl][2-(2-oxa-6-azaspiro[3.3]hept-6-yl)pyrimidin-5-yl]methanone]?
A: inhibited upper airway collapsibility, duration (i.v. bolus 0.007 mg/kg followed by i.v. infusion 0.0025 mg/kg/h for four hours, negative pressure −50 cm water head): up to two hours; inhibited upper airway collapsibility, duration (i.v. bolus 0.007 mg/kg followed by i.v. infusion 0.0025 mg/kg/h for four hours, negative pressure −100 cm water head): up to 90 minutes; inhibited upper airway collapsibility, duration (i.v. bolus 0.07 mg/kg followed by i.v. infusion 0.025 mg/kg/h for four hours, negative pressure −50 cm water head): up to four hours; inhibited upper airway collapsibility, duration (i.v. bolus 0.07 mg/kg followed by i.v. infusion 0.025 mg/kg/h for four hours, negative pressure −100 cm water head): up to four hours; inhibited upper airway collapsibility, duration (i.v. bolus 0.07 mg/kg followed by i.v. infusion 0.025 mg/kg/h for four hours, negative pressure −150 cm water head): up to two hours
